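Growth conditions: 96-well plates. Treatment: test compound, 48 hours, 5 concentrations. Analysis: linear interpolation between bracketing concentrations; unreached endpoints set to highest concentration. GI50: concentration for 50% inhibition of growth.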 Active and inactive are the calls of the source. Cut-off read from the data, not from the text of the source: active = GI50 up to about 1.1 µM and inactive = higher.
Assays:
Test in all cases: NCI-60 cell line screen, 48 h
OVCAR-8 = test system: OVCAR-8
786-0 = test system: 786-0
LOX IMVI = test system: LOX IMVI
HL-60 = test system: HL-60
SK-MEL-28 = test system: SK-MEL-28
MOLT-4 = test system: MOLT-4
PC-3 = test system: PC-3
SW-620 = test system: SW-620
BT-549 = test system: BT-549
M14 = test system: M14
RXF 393 = test system: RXF 393
OVCAR-5 = test system: OVCAR-5
A498 = test system: A498
SF-295 = test system: SF-295
NCI-H226 = test system: NCI-H226
COLO 205 = test system: COLO 205
HCT-15 = test system: HCT-15
HT-29 = test system: HT-29
SK-MEL-2 = test system: SK-MEL-2
OVCAR-4 = test system: OVCAR-4

Structure (SMILES) | GI50 (OVCAR-8) | GI50 (786-0) | GI50 (LOX IMVI) | GI50 (HL-60) | GI50 (SK-MEL-28) | GI50 (MOLT-4) | GI50 (PC-3) | GI50 (SW-620) | GI50 (BT-549) | GI50 (M14) | GI50 (RXF 393) | GI50 (OVCAR-5) | GI50 (A498) | GI50 (SF-295) | GI50 (NCI-H226) | GI50 (COLO 205) | GI50 (HCT-15) [µM] | GI50 (HT-29) | GI50 (SK-MEL-2) | GI50 (OVCAR-4)
O=C1/C(=C/c2cccc3ccccc23)CCc2ccc([N+](=O)[O-])cc21 | 37.3 µM (inactive) | 23.3 µM (inactive) | 26.9 µM (inactive) | 8.83 µM (inactive) | 16.6 µM (inactive) | > 100 µM (inactive) | 24.5 µM (inactive) | 9.66 µM (inactive) | 16.1 µM (inactive) | 24.4 µM (inactive) | 23.4 µM (inactive) | > 100 µM (inactive) | 19.3 µM (inactive) | 11.9 µM (inactive) | 27.6 µM (inactive) | 34 µM (inactive) | 17.9 |  |  | 
C(=C\c1cccs1)/c1cccc(/C=C/c2cccs2)n1 | 60.5 µM (inactive) | 35.3 µM (inactive) | > 100 µM (inactive) | > 100 µM (inactive) | > 100 µM (inactive) | > 100 µM (inactive) | > 100 µM (inactive) | 24.8 µM (inactive) | 22 µM (inactive) | > 100 µM (inactive) | > 100 µM (inactive) | > 100 µM (inactive) |  | > 100 µM (inactive) | > 100 µM (inactive) | 32.1 µM (inactive) | > 100 | > 100 µM (inactive) | > 100 µM (inactive) | 12.4 µM (inactive)
CC(C)Sc1nncc(/C(N)=N/O)n1 | > 100 µM (inactive) | > 100 µM (inactive) | > 100 µM (inactive) |  | > 100 µM (inactive) | > 100 µM (inactive) | > 100 µM (inactive) | > 100 µM (inactive) | > 100 µM (inactive) | > 100 µM (inactive) | > 100 µM (inactive) | > 100 µM (inactive) | > 100 µM (inactive) | > 100 µM (inactive) | > 100 µM (inactive) | > 100 µM (inactive) | > 100 | > 100 µM (inactive) |  | > 100 µM (inactive)
CC(=O)Nc1ccc(NNc2cc(=O)n(C)c(=O)[nH]2)cc1 | 15.9 µM (inactive) | 2.71 µM (inactive) | 2.56 µM (inactive) | 2.95 µM (inactive) | 11.9 µM (inactive) | 34.8 µM (inactive) | 4 µM (inactive) | 2.98 µM (inactive) | 13.1 µM (inactive) | 8.89 µM (inactive) |  | 14.1 µM (inactive) | 23.2 µM (inactive) | 15.8 µM (inactive) | 22.4 µM (inactive) | 11.8 µM (inactive) | 8.55 | 2.02 µM (inactive) |  | 10.2 µM (inactive)
CC(=O)Oc1ccc2cc(Oc3ccc(Cl)cc3)c(=O)oc2c1 | 19.1 µM (inactive) | 36.1 µM (inactive) | 37.9 µM (inactive) | 49.4 µM (inactive) | 41.5 µM (inactive) |  | 28.2 µM (inactive) | 40.8 µM (inactive) | 25.9 µM (inactive) | 49.9 µM (inactive) | 46.9 µM (inactive) | > 100 µM (inactive) | 25.2 µM (inactive) | 33.6 µM (inactive) | 41.5 µM (inactive) |  | 28.8 | 63.7 µM (inactive) |  | 58.2 µM (inactive)
CCN(CC)c1ccc2cc(-c3csc(C)n3)c(=O)oc2c1 |  | 39.2 µM (inactive) | 67.3 µM (inactive) | 95.3 µM (inactive) | > 100 µM (inactive) | > 100 µM (inactive) | 43.5 µM (inactive) | > 100 µM (inactive) | 28.2 µM (inactive) | > 100 µM (inactive) | 37.3 µM (inactive) | > 100 µM (inactive) |  | 47 µM (inactive) | 57.4 µM (inactive) | > 100 µM (inactive) | > 100 | 5.75 µM (inactive) | > 100 µM (inactive) | 34.6 µM (inactive)
COC1OC(COC(=O)NCCCCC(=O)C(F)(F)F)C(O)C(O)C1O (stereo not given) |  | > 100 µM (inactive) | > 100 µM (inactive) | > 100 µM (inactive) | > 100 µM (inactive) | > 100 µM (inactive) | > 100 µM (inactive) | > 100 µM (inactive) | > 100 µM (inactive) | > 100 µM (inactive) | > 100 µM (inactive) | > 100 µM (inactive) |  | > 100 µM (inactive) |  | > 100 µM (inactive) | > 100 | > 100 µM (inactive) | > 100 µM (inactive) | > 100 µM (inactive)
CC(=O)OCc1cncn1S(=O)(=O)c1ccc(C)cc1 | > 91.4 µM (inactive) | > 100 µM (inactive) | 30.8 µM (inactive) | 10.8 µM (inactive) | > 100 µM (inactive) | 32 µM (inactive) | > 100 µM (inactive) | 36.4 µM (inactive) | > 83.4 µM (inactive) | 42.2 µM (inactive) | > 100 µM (inactive) | > 100 µM (inactive) |  | > 100 µM (inactive) | > 100 µM (inactive) | 53.1 µM (inactive) | 20.3 | 33.7 µM (inactive) | > 100 µM (inactive) | > 76.7 µM (inactive)
Cc1cc(NS(=O)(=O)c2ccc(NC(=O)c3cccc4c(NNc5ccc(S(=O)(=O)N=C(N)N)cc5)c5ccccc5nc34)cc2)no1 | 51.1 µM (inactive) | > 100 µM (inactive) | 34.6 µM (inactive) | 26.7 µM (inactive) | 33.9 µM (inactive) | 28 µM (inactive) | 46.1 µM (inactive) | 60 µM (inactive) | 57.8 µM (inactive) | > 100 µM (inactive) | 46.8 µM (inactive) | 83.6 µM (inactive) |  | 69.7 µM (inactive) | 25.2 µM (inactive) | 91.6 µM (inactive) | 63.4 | 30.5 µM (inactive) | 19.5 µM (inactive) | 58.7 µM (inactive)
O=C(NN1C(=O)c2ccccc2C1=O)c1ccccc1Nc1ccccc1C(=O)NN1C(=O)c2ccccc2C1=O | > 100 µM (inactive) | > 100 µM (inactive) | > 100 µM (inactive) | > 100 µM (inactive) | > 100 µM (inactive) | > 100 µM (inactive) | > 100 µM (inactive) | > 100 µM (inactive) | > 100 µM (inactive) | > 100 µM (inactive) | > 100 µM (inactive) | > 100 µM (inactive) |  | > 100 µM (inactive) | > 100 µM (inactive) | > 100 µM (inactive) | > 100 | > 100 µM (inactive) | > 100 µM (inactive) | > 100 µM (inactive)
CC(=O)Nc1ccc2c(c1)C(=O)c1cccc(F)c1-2 | 58.2 µM (inactive) | 71.6 µM (inactive) | 38.2 µM (inactive) | > 100 µM (inactive) | > 100 µM (inactive) | 25.3 µM (inactive) | 45.7 µM (inactive) | 57.3 µM (inactive) | 4.45 µM (inactive) | 50.9 µM (inactive) | 23.6 µM (inactive) | 80.9 µM (inactive) |  | 54.2 µM (inactive) | 35.2 µM (inactive) | 53 µM (inactive) | 24.7 | 35.2 µM (inactive) | > 100 µM (inactive) | 50.4 µM (inactive)
